This passage reports IC50 results from PMC10143822, “Structural Adaptation of the Single-Stranded DNA-Binding Protein C-Terminal to DNA Metabolizing Partners Guides Inhibitor Design” (Pharmaceutics, 2023).

For one experiment, the target named is T1, ExoI (Escherichia coli, UniProt P04995).
T1 construct: His-tag (cleaved yes); host or cells: E. coli BL21 (DE3) pLysS
The experiment can be described thus: biochemical. The format is binding, E. coli. Here is the method: (§1) Triplicate measurements were performed using a Clariostar Plus Microplate Reader in 384-well plates for all fluorescence anisotropy (FA) experiments. The settings were 25 °C, excitation at 485 nm, emission at 510 nm, settling time of 0.2 s, and 200 flashes per well.
(§2) Competition fluorescence anisotropy experiments were carried out as follows: protein (0.5 μM either ExoI or RecO) was incubated with 50 nM F-wtSSB peptide and 0–500 μM unlabeled wtSSB (or a variant) peptide for 30 min at room temperature. For direct fluorescence anisotropy measurements, 16 µM ExoI and 7.5 µM RecO were used in the first well. After serial dilution, either 50 nM of F-mSSB or F-sSSB was added to the wells and then incubated for 30 min. Buffers used included 20 mM Tris-HCl (pH 8.0), 100 mM NaCl, 1 mM MgCl2, 1 mM 2-mercaptoethanol, 10% (v/v) glycerol, for ExoI and 20 mM Tris-HCl (pH 8.0), 200 mM NaCl, 1 mM 2-mercaptoethanol, 10% (v/v) glycerol, and 0.01% Triton-X 100 for RecO [37].
(§3) Fluorescence anisotropy values were normalized and are shown as bound fractions (BF, %). BF=r−rmin/λ(rmax−r)+r−rmin, I=2∗PG+S, r=S−PG/I, where r: anisotropy, I: total intensity, P: perpendicular intensity, S: parallel intensity, G: an instrument factor set to 1, BF: ligand fraction bound, and λ=λbound/λunbound=1 .
(§4) Competitive fluorescence anisotropy was analyzed in Origin Pro 9.5, and IC50 values were determined using the Logistic Nonlinear fit function and are shown as plots for each mutated position for each protein in Figures S4 and S6. EC50 values from direct fluorescence anisotropy titrations were plotted in Origin 9.5. Values were determined using the Logistics Nonlinear fit function.

The next experiment deals with T2, RecO (Escherichia coli, UniProt P0A7H3).
T2 construct: His-tag (TEV site) (N, cleaved yes); made in house; host or cells: E. coli Rosetta cells
Description: biochemical. The following applies: 0.5 μM RecO, 50 nM F-wtSSB tracer, 0–500 μM unlabeled peptide, 30 min room temperature; 20 mM Tris-HCl pH 8.0, 200 mM NaCl, 10% glycerol, 0.01% Triton-X 100; 25 °C; triplicate; read-out: IC50 on RecO, competitive fluorescence anisotropy. It is filed as binding. Here is the method: as §1, §2, §3, §4

Where a SMILES comes first, the peptide text is derived from it. [ ]: non-standard residue; d: D form. Phe(4-Cl) = N[C@@H](Cc1ccc(Cl)cc1)C(=O)O; NMeF = CN[C@@H](Cc1ccccc1)C(=O)O; Tic = O=C(O)[C@@H]1Cc2ccccc2CN1; 2Thi = N[C@@H](Cc1cccs1)C(=O)O; β3hD = NC(CC(=O)O)CC(=O)O

T2 sequence (P0A7H3 whole entry): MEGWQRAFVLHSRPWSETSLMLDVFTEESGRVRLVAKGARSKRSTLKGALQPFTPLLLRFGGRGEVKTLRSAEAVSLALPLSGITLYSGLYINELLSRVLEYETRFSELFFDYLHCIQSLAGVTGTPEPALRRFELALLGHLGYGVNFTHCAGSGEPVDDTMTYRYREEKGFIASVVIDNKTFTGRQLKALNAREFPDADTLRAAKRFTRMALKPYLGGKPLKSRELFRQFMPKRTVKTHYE
T1 sequence (P04995 whole entry): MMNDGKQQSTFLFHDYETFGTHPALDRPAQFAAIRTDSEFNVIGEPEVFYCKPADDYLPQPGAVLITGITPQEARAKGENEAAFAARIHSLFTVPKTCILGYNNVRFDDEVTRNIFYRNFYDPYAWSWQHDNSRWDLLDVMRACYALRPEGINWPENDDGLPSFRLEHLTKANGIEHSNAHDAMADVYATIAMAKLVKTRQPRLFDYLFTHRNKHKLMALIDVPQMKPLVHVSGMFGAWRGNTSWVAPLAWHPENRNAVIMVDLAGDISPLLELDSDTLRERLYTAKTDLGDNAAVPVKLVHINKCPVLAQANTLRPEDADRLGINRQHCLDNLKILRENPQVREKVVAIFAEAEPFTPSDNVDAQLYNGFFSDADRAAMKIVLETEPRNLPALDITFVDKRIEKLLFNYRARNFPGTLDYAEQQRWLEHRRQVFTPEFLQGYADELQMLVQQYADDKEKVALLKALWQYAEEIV

As for `CC[C@H](C)[C@H](NC(=O)[C@H](CC(=O)O)NC(=O)[C@H](CC(=O)O)NC(=O)[C@H](CC(=O)O)NC(=O)[C@H](Cc1ccccc1)NC(=O)[C@H](CC(=O)O)NC(C)=O)C(=O)N1CCC[C@H]1C(=O)N[C@@H](Cc1ccc(Cl)cc1)C(=O)O` [4-Cl-Phe8] (Ac-DFDDDIP[Phe(4-Cl)]-OH), the IC50 – broadly, the concentration that gives 50% inhibition – against ExoI came out at 1.41 ± 0.18 µM; on RecO, 3.62 ± 0.84 µM.
As to `CC[C@H](C)[C@H](NC(=O)[C@H](CC(=O)O)NC(=O)[C@H](CC(=O)O)NC(=O)[C@H](CC(=O)O)NC(=O)[C@H](Cc1ccccc1)N(C)C(=O)[C@H](CC(=O)O)NC(C)=O)C(=O)N1CCC[C@H]1C(=O)N[C@@H](Cc1ccccc1)C(=O)O` [NM-Phe2] (Ac-D[NMeF]DDDIPF-OH), the IC50 against ExoI was 5.37 ± 0.53 µM; at RecO, 3.33 ± 0.35 µM.
As to `CC[C@H](C)[C@H](NC(=O)[C@H](CC(=O)O)NC(=O)[C@@H](CC(=O)O)NC(=O)[C@H](CC(=O)O)NC(=O)[C@H](Cc1ccccc1)NC(=O)[C@H](CC(=O)O)NC(C)=O)C(=O)N1CCC[C@H]1C(=O)N[C@@H](Cc1ccccc1)C(=O)O` [D-Asp4] (Ac-DFD[dD]DIPF-OH), the IC50 was found to be 3.08 ± 0.07 µM against ExoI and 5.92 ± 0.91 µM at RecO.
`CC[C@H](C)[C@H](NC(=O)[C@H](CC(=O)O)NC(=O)[C@H](CC(=O)O)NC(=O)[C@H](CC(=O)O)NC(=O)[C@H](Cc1ccccc1)NC(=O)[C@@H](CC(=O)O)NC(C)=O)C(=O)N1CCC[C@H]1C(=O)N[C@@H](Cc1ccccc1)C(=O)O` [D-Asp1] (Ac-[dD]FDDDIPF-OH): the IC50 against ExoI amounted to 5.55 ± 0.19 µM; on RecO, 6.56 ± 1.4 µM.
On to `CC[C@H](C)[C@H](NC(=O)[C@H](CC(=O)O)NC(=O)[C@H](CC(=O)O)NC(=O)C[C@H](CC(=O)O)NC(=O)[C@H](Cc1ccccc1)NC(=O)[C@H](CC(=O)O)NC(C)=O)C(=O)N1CCC[C@H]1C(=O)N[C@@H](Cc1ccccc1)C(=O)O` [β3-Asp3] (Ac-DF[β3hD]DDIPF-OH), for which the results for the IC50 at ExoI and on RecO were 3.65 ± 0.16 µM and 8.92 ± 0.39 µM, respectively.
The corresponding values for `CC[C@H](C)[C@H](NC(=O)[C@H](CC(=O)O)NC(=O)[C@H](CC(=O)O)NC(=O)[C@H](CC(=O)O)NC(=O)[C@H](Cc1ccccc1)NC(=O)[C@H](CC(=O)O)NC(C)=O)C(=O)N1CCC[C@H]1C(=O)N1Cc2ccccc2C[C@H]1C(=O)O` [Tic8] (Ac-DFDDDIP[Tic]-OH) are 96.1 ± 83.8 µM and 141 ± 8.37 µM.
The corresponding values for `CC[C@H](C)[C@H](NC(=O)[C@H](CC(=O)O)NC(=O)[C@H](CC(=O)O)NC(=O)[C@H](CC(=O)O)NC(=O)[C@H](Cc1ccccc1)NC(=O)[C@H](CC(=O)O)NC(C)=O)C(=O)N1CCC[C@H]1C(=O)N[C@@H](Cc1cccs1)C(=O)O` [Thi8] (Ac-DFDDDIP[2Thi]-OH) are 7.72 ± 0.51 µM and 8.59 ± 7.26 µM.
The matching figures for `CC[C@H](C)[C@H](NC(=O)[C@H](CC(=O)O)NC(=O)[C@H](CC(=O)O)NC(=O)[C@@H](CC(=O)O)NC(=O)[C@H](Cc1ccccc1)NC(=O)[C@H](CC(=O)O)NC(C)=O)C(=O)N1CCC[C@H]1C(=O)N[C@@H](Cc1ccccc1)C(=O)O` [D-Asp3] (Ac-DF[dD]DDIPF-OH): 6.82 ± 0.53 µM and 4.56 ± 1.53 µM.
Turning to `CC[C@H](C)[C@H](NC(=O)[C@H](CC(=O)O)NC(=O)[C@H](CC(=O)O)NC(=O)[C@H](CC(=O)O)NC(=O)[C@H](Cc1cccs1)NC(=O)[C@H](CC(=O)O)NC(C)=O)C(=O)N1CCC[C@H]1C(=O)N[C@@H](Cc1ccccc1)C(=O)O` [Thi2] (Ac-D[2Thi]DDDIPF-OH), the values for the IC50 against ExoI and at RecO were 4.22 ± 0.81 µM and 5.27 ± 0.28 µM, respectively.
